Reference: patent US20240209028A1, “CNP COMPOUNDS” (priority 2022, published 2024)
Starred links: 1 amine or outer side, 2 acyl side, 3 side chain; linkers in the order of their positions; H or OH if unused. Positions of bridges follow the written chain, without caps; N, C: chain ends. Residues, ends and D or L forms follow the SMILES beside them. *: point of attachment. C18 diacid = O=C(O)CCCCCCCCCCCCCCCCC(=O)*; γGlu = O=C(O)[C@H](CCC(=O)[*:2])N[*:1]; AEEA = NCCOCCOCC(=O)O

assay: Thioflavin T (ThT) assay: lagtime and peptide recovery; format: physicochemical; settings: ThT assay, pH 6.5, 37° C.; assay terminated after 45 hours
From the text: The ThT assay was used to evaluate physical stability of the CNP compounds and their suitability for liquid formulation. Low physical stability of peptides may lead to amyloid fibril formation, which is observed as well-ordered, thread-like macromolecular structures in the sample eventually resulting in gel formation. This has traditionally been tested by visual inspection of the sample. However, that kind of measurement is very subjective and depending on the observer. Therefore, the application of a small molecule indicator probe is much more advantageous. Thioflavin T (ThT) is such a probe and has a distinct fluorescence signature when binding to fibrils [Naiki et al. (1989) Anal. Biochem. 177, 244-249; LeVine (1999) Methods. Enzymol. […], 274-284].
Procedure: Thioflavin T was added to the supernatant samples from Example 5 (pH 4.0 and 6.5) using an aqueous ThT stock solution to a final concentration of about 1 μM in the samples. Sample aliquots of 150 μL were placed in a 96 well microtiter plate (Packard OptiPlate™-96, white polystyrene). Usually, two to three replicas of each sample were applied to the plate. The plate was sealed and placed in a fluorescence plate reader (Fluoroskan Ascent FL) and incubated at 37° C. with orbital shaking (960 rpm; 1 mm amplitude). Fluorescence measurements were performed every 20 minutes using excitation through a 444 nm filter and measurement of emission through a 485 nm filter. Between each measurement, the plate was shaken and heated as described above and the assay was terminated after 45 hours. Fluorescence measurements for each microtiter plate well were plotted against time and the lag-time (time until an increase in ThT fluorescence was observed) was estimated.
To assess loss of dissolved peptide following 45h incubation, peptide recovery was measured as the ratio between total peak area after incubation vs. before incubation using the RP-UPLC method described below.
Measurement of LagTime and Peptide recovery % using RP-UPLC: RP-UPLC was conducted using an Acquity UPLC BEH C18 1.7 μm (2.1×30 mm) Waters column (Eluent A: 0.1% v/v % TFA in water; Eluent B: 0.1% v/v TFA in acetonitrile/water 4:1) with gradient elution (0 min: 95% A; 2 min: 20% A; 2.3 min: 20% A; 2.4 min: 95% A; 9 min: 95% A) in a flow rate of 0.9 mL/min and a column temperature of 30° C. UV-detection at 215 nm was used to assess the total peptide area.
Samples at pH 4.0 were prepared as described in Example 5 and subjected to the ThT assay as described above.
Samples at pH 6.5 were prepared as described in Example 5 and subjected to the ThT assay as described above.

Structure (SMILES) | LagTime (h) at pH 6.5 [h]
CC[C@H](C)[C@@H]1NC(=O)[C@H](CCCNC(=N)N)NC(=O)[C@H](CCC(=O)O)NC(=O)[C@H](CC(C)C)NC(=O)[C@@H]2CCCN2C(=O)[C@H](CC(C)C)NC(=O)CNC(=O)[C@H](Cc2ccccc2)NC(=O)[C@@H](NC(=O)CNC(=O)[C@H](CCC(N)=O)NC(=O)[C@H](CO)NC(=O)[C@H](CC(C)C)NC(=O)CNC(=O)[C@H](CCCCN)NC(=O)[C@H](CCCCN)NC(=O)[C@H](CCC(N)=O)NC(=O)[C@H](C)NC(=O)CNC(=O)[C@H](CCCCN)NC(=O)[C@H](Cc2ccc(O)cc2)NC(=O)[C@H](CCCCN)NC(=O)[C@H](CCCNC(=N)N)NC(=O)[C@H](C)NC(=O)COCCOCCNC(=O)COCCOCCNC(=O)COCCOCCNC(=O)COCCOCCNC(=O)CC[C@H](NC(=O)CC[C@H](NC(=O)CC[C@H](NC(=O)CC[C@H](NC(=O)CC[C@H](NC(=O)CCCCCCCCCCCCCCCCC(=O)O)C(=O)O)C(=O)O)C(=O)O)C(=O)O)C(=O)O)CSSC[C@@H](C(=O)O)NC(=O)CNC(=O)[C@H](CC(C)C)NC(=O)CNC(=O)[C@H](CO)NC(=O)[C@H](CC(C)C)NC(=O)[C@H](CO)NC(=O)CNC1=O [compound 1477] ({C18 diacid-γGlu-γGlu-γGlu-γGlu-γGlu-AEEA-AEEA-AEEA-AEEA}-ARKYKGAQKKGLSQGCFGLPLERIGSLSGLGC-OH; disulfide 16-32) | 23
CC[C@H](C)[C@@H]1NC(=O)[C@H](CCCNC(=N)N)NC(=O)[C@H](CC(=O)O)NC(=O)[C@H](CC(C)C)NC(=O)[C@@H]2CCCN2C(=O)[C@H](CC(C)C)NC(=O)CNC(=O)[C@H](Cc2ccccc2)NC(=O)[C@@H](NC(=O)CNC(=O)[C@H](CCC(N)=O)NC(=O)[C@H](CO)NC(=O)[C@H](CC(C)C)NC(=O)CNC(=O)[C@H](CCCCN)NC(=O)[C@H](CCCCN)NC(=O)[C@H](CCC(N)=O)NC(=O)[C@H](C)NC(=O)CNC(=O)[C@H](CCCCN)NC(=O)[C@H](Cc2ccc(O)cc2)NC(=O)COCCOCCNC(=O)COCCOCCNC(=O)COCCOCCNC(=O)COCCOCCNC(=O)CC[C@H](NC(=O)CC[C@H](NC(=O)CCCCCCCCCCCCCCCCC(=O)O)C(=O)O)C(=O)O)CSSC[C@@H](C(=O)O)NC(=O)CNC(=O)[C@H](CC(C)C)NC(=O)CNC(=O)[C@H](CO)NC(=O)[C@H](CC(C)C)NC(=O)[C@H](CO)NC(=O)CNC1=O [compound 1478] ({C18 diacid-γGlu-γGlu-AEEA-AEEA-AEEA-AEEA}-YKGAQKKGLSQGCFGLPLDRIGSLSGLGC-OH; disulfide 13-29; C-terminus assumed) | 45
CC[C@H](C)[C@@H]1NC(=O)[C@H](CCCNC(=N)N)NC(=O)[C@H](CC(=O)O)NC(=O)[C@H](CC(C)C)NC(=O)[C@@H]2CCCN2C(=O)[C@H](CC(C)C)NC(=O)CNC(=O)[C@H](Cc2ccccc2)NC(=O)[C@@H](NC(=O)CNC(=O)[C@H](CCC(N)=O)NC(=O)[C@H](CO)NC(=O)[C@H](CC(C)C)NC(=O)CNC(=O)[C@H](CCCCN)NC(=O)[C@H](CCCCN)NC(=O)[C@H](CCC(N)=O)NC(=O)[C@H](C)NC(=O)CNC(=O)[C@@H]2CCCN2C(=O)[C@H](C)NC(=O)[C@H](CCC(N)=O)NC(=O)CNC(=O)COCCOCCNC(=O)COCCOCCNC(=O)CC[C@H](NC(=O)CCCCCCCCCCCCCCCCC(=O)O)C(=O)O)CSSC[C@@H](C(=O)O)NC(=O)CNC(=O)[C@H](CC(C)C)NC(=O)CNC(=O)[C@H](CO)NC(=O)[C@H](CC(C)C)NC(=O)[C@H](CO)NC(=O)CNC1=O [compound 1484] ({C18 diacid-γGlu-AEEA-AEEA}-GQAPGAQKKGLSQGCFGLPLDRIGSLSGLGC-OH; disulfide 15-31; C-terminus assumed) | 4
CC[C@H](C)[C@@H]1NC(=O)[C@H](CCCNC(=N)N)NC(=O)[C@H](CC(=O)O)NC(=O)[C@H](CC(C)C)NC(=O)[C@@H]2CCCN2C(=O)[C@H](CC(C)C)NC(=O)CNC(=O)[C@H](Cc2ccccc2)NC(=O)[C@@H](NC(=O)CNC(=O)[C@H](CCC(N)=O)NC(=O)[C@H](CO)NC(=O)[C@H](CC(C)C)NC(=O)CNC(=O)[C@H](CCCCN)NC(=O)[C@H](CCCCN)NC(=O)[C@H](CCC(N)=O)NC(=O)[C@H](C)NC(=O)CNC(=O)[C@H](CCCCN)NC(=O)[C@H](Cc2ccc(O)cc2)NC(=O)COCCOCCNC(=O)COCCOCCNC(=O)COCCOCCNC(=O)COCCOCCNC(=O)CC[C@H](NC(=O)CC[C@H](NC(=O)CC[C@H](NC(=O)CCCCCCCCCCCCCCCCC(=O)O)C(=O)O)C(=O)O)C(=O)O)CSSC[C@@H](C(=O)O)NC(=O)CNC(=O)[C@H](CC(C)C)NC(=O)CNC(=O)[C@H](CO)NC(=O)[C@H](CC(C)C)NC(=O)[C@H](CO)NC(=O)CNC1=O [compound 9480] ({C18 diacid-γGlu-γGlu-γGlu-AEEA-AEEA-AEEA-AEEA}-YKGAQKKGLSQGCFGLPLDRIGSLSGLGC-OH; disulfide 13-29) | 45

same assay, conditions: ThT, 37° C., shaking; assay terminated after 45 hours

Structure (SMILES) | LagTime (h) at pH 4.0 [h]
CC[C@H](C)[C@@H]1NC(=O)[C@H](CCCNC(=N)N)NC(=O)[C@H](CC(=O)O)NC(=O)[C@H](CC(C)C)NC(=O)[C@@H]2CCCN2C(=O)[C@H](CC(C)C)NC(=O)CNC(=O)[C@H](Cc2ccccc2)NC(=O)[C@@H](NC(=O)CNC(=O)[C@H](CO)NC(=O)[C@H](CO)NC(=O)[C@H](CC(C)C)NC(=O)CNC(=O)[C@H](CCCCN)NC(=O)[C@H](CCCCN)NC(=O)[C@H](CCC(N)=O)NC(=O)[C@H](C)NC(=O)CNC(=O)[C@H](CCCCN)NC(=O)[C@H](Cc2ccc(O)cc2)NC(=O)[C@H](CCCCN)NC(=O)[C@H](CCCNC(=N)N)NC(=O)[C@H](C)NC(=O)[C@H](CCC(N)=O)NC(=O)[C@@H]2CCCN2C(=O)[C@H](Cc2c[nH]cn2)NC(=O)[C@H](CCC(=O)O)NC(=O)[C@H](CCC(N)=O)NC(=O)COCCOCCNC(=O)COCCOCCNC(=O)CC[C@H](NC(=O)CC[C@H](NC(=O)CC[C@H](NC(=O)CC[C@H](NC(=O)CCCCCCCCCCCCCCCCC(=O)O)C(=O)O)C(=O)O)C(=O)O)C(=O)O)CSSC[C@@H](C(=O)O)NC(=O)CNC(=O)[C@H](CC(C)C)NC(=O)CNC(=O)[C@H](CO)NC(=O)[C@H](CC(C)C)NC(=O)[C@H](CO)NC(=O)CNC1=O [compound 1473] ({C18 diacid-γGlu-γGlu-γGlu-γGlu-AEEA-AEEA}-QEHPQARKYKGAQKKGLSSGCFGLPLDRIGSLSGLGC-OH; disulfide 21-37; C-terminus assumed) | 45
CC[C@H](C)[C@@H]1NC(=O)[C@H](CCCNC(=N)N)NC(=O)[C@H](CC(=O)O)NC(=O)[C@H](CC(C)C)NC(=O)[C@@H]2CCCN2C(=O)[C@H](CC(C)C)NC(=O)CNC(=O)[C@H](Cc2ccccc2)NC(=O)[C@@H](NC(=O)CNC(=O)[C@H](CCCCN)NC(=O)[C@H](CO)NC(=O)[C@H](CC(C)C)NC(=O)CNC(=O)[C@H](CCCCN)NC(=O)[C@H](CCCCN)NC(=O)[C@H](CCC(N)=O)NC(=O)[C@H](C)NC(=O)CNC(=O)[C@H](CCCCN)NC(=O)[C@H](Cc2ccc(O)cc2)NC(=O)[C@H](CCCCN)NC(=O)[C@H](CCCNC(=N)N)NC(=O)[C@H](C)NC(=O)[C@H](CCC(N)=O)NC(=O)[C@@H]2CCCN2C(=O)[C@H](Cc2c[nH]cn2)NC(=O)[C@H](CCC(=O)O)NC(=O)[C@H](CCC(N)=O)NC(=O)COCCOCCNC(=O)COCCOCCNC(=O)CC[C@H](NC(=O)CC[C@H](NC(=O)CC[C@H](NC(=O)CC[C@H](NC(=O)CC[C@H](NC(=O)CCCCCCCCCCCCCCCCC(=O)O)C(=O)O)C(=O)O)C(=O)O)C(=O)O)C(=O)O)CSSC[C@@H](C(=O)O)NC(=O)CNC(=O)[C@H](CC(C)C)NC(=O)CNC(=O)[C@H](CO)NC(=O)[C@H](CC(C)C)NC(=O)[C@H](CO)NC(=O)CNC1=O [compound 1474] ({C18 diacid-γGlu-γGlu-γGlu-γGlu-γGlu-AEEA-AEEA}-QEHPQARKYKGAQKKGLSKGCFGLPLDRIGSLSGLGC-OH; disulfide 21-37; C-terminus assumed) | 45
CC[C@H](C)[C@@H]1NC(=O)[C@H](CCCNC(=N)N)NC(=O)[C@H](CC(=O)O)NC(=O)[C@H](CC(C)C)NC(=O)[C@@H]2CCCN2C(=O)[C@H](CC(C)C)NC(=O)CNC(=O)[C@H](Cc2ccccc2)NC(=O)[C@@H](NC(=O)CNC(=O)[C@H](CCC(N)=O)NC(=O)[C@H](CO)NC(=O)[C@H](CC(C)C)NC(=O)CNC(=O)[C@H](CCCCN)NC(=O)[C@H](CCCCN)NC(=O)[C@H](CCC(N)=O)NC(=O)[C@H](C)NC(=O)CNC(=O)[C@H](CCCCN)NC(=O)[C@H](Cc2ccc(O)cc2)NC(=O)COCCOCCNC(=O)COCCOCCNC(=O)COCCOCCNC(=O)COCCOCCNC(=O)CC[C@H](NC(=O)CC[C@H](NC(=O)CCCCCCCCCCCCCCCCC(=O)O)C(=O)O)C(=O)O)CSSC[C@@H](C(=O)O)NC(=O)CNC(=O)[C@H](CC(C)C)NC(=O)CNC(=O)[C@H](CO)NC(=O)[C@H](CC(C)C)NC(=O)[C@H](CO)NC(=O)CNC1=O [compound 1478] ({C18 diacid-γGlu-γGlu-AEEA-AEEA-AEEA-AEEA}-YKGAQKKGLSQGCFGLPLDRIGSLSGLGC-OH; disulfide 13-29; C-terminus assumed) | 0.33
CC[C@H](C)[C@@H]1NC(=O)[C@H](CCCNC(=N)N)NC(=O)[C@H](CCC(=O)O)NC(=O)[C@H](CC(C)C)NC(=O)[C@@H]2CCCN2C(=O)[C@H](CC(C)C)NC(=O)CNC(=O)[C@H](Cc2ccccc2)NC(=O)[C@@H](NC(=O)CNC(=O)[C@H](CCC(N)=O)NC(=O)[C@H](CO)NC(=O)CNC(=O)CNC(=O)[C@H](CCCCN)NC(=O)[C@H](CCCCN)NC(=O)[C@H](CCC(N)=O)NC(=O)[C@H](C)NC(=O)CNC(=O)[C@H](CCCCN)NC(=O)[C@H](Cc2ccc(O)cc2)NC(=O)COCCOCCNC(=O)COCCOCCNC(=O)COCCOCCNC(=O)COCCOCCNC(=O)CC[C@H](NC(=O)CC[C@H](NC(=O)CCCCCCCCCCCCCCCCC(=O)O)C(=O)O)C(=O)O)CSSC[C@@H](C(=O)O)NC(=O)CNC(=O)[C@H](CC(C)C)NC(=O)CNC(=O)[C@H](CO)NC(=O)[C@H](CC(C)C)NC(=O)[C@H](CO)NC(=O)CNC1=O [compound 1489] ({C18 diacid-γGlu-γGlu-AEEA-AEEA-AEEA-AEEA}-YKGAQKKGGSQGCFGLPLERIGSLSGLGC-OH; disulfide 13-29) | 45
